In patent US20110130374A1, “Small Pyrimidine Derivatives and Methods of Use Thereof” (BIOSEARCH(2007) LTD., priority 2009, published 2011):

Columns and labels:
A375 melanoma cells = assay: Transwell cell migration assay, A375 melanoma cells; type: cell-based; conditions: Homo sapiens, A-375; A375 melanoma cells, Transwell 5 μm pore, 24 h, Example 3 (FIGS. 1A, 1E); read-out: IC50 in the migration assay
Method: A375 melanoma cells (CRL-1619, American Type Culture Collection (“ATCC”), Manassas Va., USA)) grown in RPMI medium supplement with 10% FBS were starved for 24 hours in FBS free medium. After starvation of 24 hr, 5×10^4 cells in FBS free medium were placed in the upper chamber of 24-well, Transwell apparatus (CORNING TRANS WELL® polycarbonate membrane inserts, 5 μm pore size) with solvent (DMSO/PEG400) or different concentrations of Compound 1 (PRT7000467), Compound 2 (PRT7041128), or Compound 3 (PRT7081582). Medium containing FBS and compounds was added to the bottom chamber. Twenty-four hours later the melanoma cells from the upper chamber were removed with a cotton swab. Cells that migrated to the lower side of the membrane were stained with Calcein-AM (Sigma) and images were taken with fluorescence microscope. The number of migrating cells was quantified by ImageJ software and the IC50 values were calculated using Prism software (Graphpad) (FIG. 1A,1E).
A375 (melanoma) (CRL-1619, ATCC, Manassas, Va., USA), A431 (melanoma) (CRL-2592, ATCC, Manassas, Va., USA), A2058 (melanoma) (CRL-11147, ATCC, Manassas, Va., USA), MDA-MB-231 (breast) (HTB-26, ATCC, Manassas, Va., USA), LS175T (colon) (ATCC, Manassas, Va., USA), HT29 (colon) (HTB-38, ATCC, Manassas, Va., USA), PC3 (prostate) (CRL-1435, ATCC, Manassas, Va., USA), Panc03.27 (pancreatic) (ATCC, Manassas, Va., USA), 4T1 (breast-mouse) (CRL-2539, ATCC, Manassas. Va., USA), D122 (lung-mouse) (the Weizmann Institute of Science), D122-luc (lung-mouse) (the Weizmann Institute of Science), and B16 F10.9 (melanoma-mouse) cells (Caliper Life Sciences, Hopkinton Mass.), were grown in RPMI medium supplemented with 10% FBS. HUVEC cells were grown in Endothelial Cell Growth Medium 2 and THP1 cells were grown in RPMI medium supplemented with 10% FBS, 2 mM L-Glutamine, 1.5 g/L sodium bicarbonate, 10 mM Hepes, 1 mM sodium pyruvate, 4.5 g/L glucose and 0.05 mM 2-mercaptoethanol. The cells were starved for 24 hours in medium without FBS. At the end of the starvation, 5×10^4 cells in medium without FBS were placed in the upper chamber of 24-well, Transwell apparatus (CORNING TRANSWELL® polycarbonate membrane inserts, 5 μm pore size for […] and THP1 cells and 8 μm pore size for all the other cells) with solvent (DMSO/PEG400) or different concentrations of compound 1 (PRT7000467). Medium with FBS and compounds was added to the bottom chamber. Twenty-four hours later the cells from the upper chamber were removed with a cotton swab. Cells that migrated to the lower side of the membrane were stained with Calcein-AM (Sigma) and images were taken with a fluorescence microscope. The number of migrating cells was quantified by ImageJ software and the IC50 values were calculated using Prism software (Graphpad).

A375 cells = assay: Cell viability, WST-1 reagent, A375 cells grown in two-dimension; type: cell-based; conditions: WST-1, 72 h post treatment
Method: Compound 1 (PRT7000467), Compound 2 (PRT7041128), and Compound 3 (PRT7081582) are not toxic to cells grown in two-dimension. A375 cells were cultured with RPMI and 10% FBS. The cells were treated with different concentrations of Compound 1 (PRT7000467) and Compound 2 (PRT7041128), then the viability of the cells was determined seventy-two hours post treatment using WST-1 reagent (Roche) (FIG. 1B)

With `O=C(Nc1ccc(S(=O)(=O)Nc2ncccn2)cc1)/C(=C\c1cccs1)NC(=O)c1cccs1` [Compound 2] the IC50 (A375 melanoma cells) was 9.2 µM and the “toxicity to cells grown in two-dimension” value (A375 cells) was “not toxic”.
